Assay results from PMC12647892, “State-selective small molecule degraders that preferentially remove aggregates and oligomers” (Nature Communications, 2025).

Target: T1, TRIM21 PRYSPRY (Homo sapiens, UniProt P19474)
T1 construct: PRYSPRY domain (TRIM21his-PS)
Experiment: crystal structure; fluorescence polarisation, tryptophan quenching, nanoDSF
Assay type: binding

T1 sequence (P19474 287-465 limits assumed): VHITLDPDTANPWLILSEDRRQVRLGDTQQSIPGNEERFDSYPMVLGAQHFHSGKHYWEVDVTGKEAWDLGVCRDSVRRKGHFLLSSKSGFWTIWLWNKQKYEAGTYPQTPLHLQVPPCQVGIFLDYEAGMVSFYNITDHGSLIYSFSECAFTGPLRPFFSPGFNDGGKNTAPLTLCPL

Kd: 400 nM
Compound: CNC(=O)[C@H](Cc1ccncc1)NC(=O)[C@@H]1C[C@@H](C2CCCCC2)CN1C(=O)C[C@H](N)c1ccccc1OC [MRC37]
